According to patent US20260256721A1, “ANTI-COCCIDIAL COMPOSITION COMPRISING QUINIC ACID AND USES THEREOF” (priority 2023, published 2026):
Like-named read-outs stand apart in the source and are kept apart here.

Key:
[1] = tested on: Eimeria tenella protozoa (sporozoites); test: microbe, parasite or virus in culture; type: cell-based
Text: (§1) A certain amount of oocysts (eggs) of Eimeria tenella and Eimeria maxima protozoa (College of Veterinary Medicine, Gyeongsang National University, Korea) were put in a tube containing glass beads and crushed, and then, in order to remove crushed oocyst cell walls and other debris, internal sporocysts were purified using Percoll density gradient, and washed with a PBS solution. For excystation of internal sporozoites, reagents comprising sodium taurocholic acid (sigma aldirich, USA) and trypsin (Ginco, USA), respectively, were treated to Eimeria tenella and Eimeria maxima sporangia and they were incubated, and then washed with PBS (Phosphate-Buffered Saline) solution once and the protozoa were obtained.
Quinic acid (Sigma, Cas No. 77-95-2) at concentrations ranging from 0 to 1000 ppm was reacted with Eimeria tenella oocysts at 40° C. for 3 hours. Following this, only live protozoa (sporozoites) were counted by microscopy. The mortality rate (%) of the protozoa was measured for each substance treatment compared to the negative control group treated with PBS. The results, as shown in FIG. 1 and Table 2, confirmed the anti-coccidial efficacy of quinic acid depending on the concentration.
(§2) Then, the mortality rate (%) was measured when each substance was treated compared to a negative control group to which PBS was treated, and the result is shown in Table 3 below.
After reacting 0.1% (v/v) DMSO, quinic acid, chlorogenic acid, theogallin, and cryptochlorogenic acid, respectively, with Eimeria tenella protozoa at a concentration of 10 ppm at 40° C. for 3 hours, only living protozoa (sporozoites) were counted by microscopy. Then, the mortality rate (%) was measured when each substance was treated compared to a negative control group to which PBS was treated, and the result is shown in Table 5 below.
The Eimeria tenella protozoa were killed by treating the quinic acid or sugarcane extract up to 1000 ppm concentration at maximum, and the minimal treatment concentration showing a mortality rate of 50% or more against Eimeria tenella protozoa was shown in Table 6 below.

[2] = tested on: Eimeria maxima protozoa (sporozoites); test: Direct killing effect against Eimeria maxima protozoa (live sporozoites counted by microscopy); type: cell-based; conditions: 3 h, read-out: Mortality rate of Eimeria maxima orozites [Killed sporozoites %]
Text: as §1, §2

[3] = Eimeria tenella, 3 h, read-out: Mortality rate of Eimeria tenella orozites [Killed sporozoites %]
[4] = Eimeria tenella, 3 h, read-out: Mortality rate of Eimeria tenella sporozites [Killed sporozoites %]
[5] = Eimeria tenella, each substance treated up to 1000 ppm, minimum concentration with mortality rate of 50% or higher, x not defined (Table 4)
[6] = Eimeria tenella, 3 h, read-out: The mortality rate

SMILES: O=C(O)/C=C/c1ccc(O)c(O)c1 [Caffeic acid, caffeic acid, reference compound]
- mortality at 10 ppm [1, 3]: 0%
- mortality at 10 ppm [2]: 0%

SMILES: O=C(/C=C/c1ccc(O)c(O)c1)O[C@@H]1C[C@](O)(C(=O)O)C[C@@H](O)[C@H]1O [Chlorogenic acid, chlorogenic acid, reference compound]
- mortality at 10 ppm [1, 3]: 0%
- mortality at 10 ppm [1, 4]: 0%
- Minimum Dose for killed 50% sporozoite [1, 5]: 500 ppm
- mortality at 10 ppm [2]: 0%

SMILES: O=C(/C=C/c1ccc(O)c(O)c1)O[C@H]1[C@H](O)C[C@](O)(C(=O)O)C[C@H]1O [Cryptochlorogenic acid, cryptochlorogenic acid, reference compound]
- Mortality rate of Eimeria tenella sporozites [Killed sporozoites %] ([1]; 10 ppm, 40° C., 3 hours, compared to PBS negative control (Table 5)): 0%

SMILES: COc1cc(/C=C/C(=O)O)ccc1O [Ferulic acid, ferulic acid, reference compound]
- mortality at 10 ppm [1, 3]: 0%
- mortality at 10 ppm [2]: 0%

SMILES: O=C(O)[C@]1(O)C[C@@H](O)[C@@H](O)[C@H](O)C1 [Quinic acid, quinic acid]
- mortality at 10 ppm [1, 3]: 32%
- mortality at 10 ppm [1, 4]: 32%
- mortality at 0.78 ppm [1, 6]: 7.4%
- mortality at 1.56 ppm [1, 6]: 14.9%
- mortality at 3.125 ppm [1, 6]: 20.2%
- mortality at 6.25 ppm [1, 6]: 25.5%
- mortality at 12.5 ppm [1, 6]: 31.9%
- mortality at 25 ppm [1, 6]: 35.1%
- mortality at 50 ppm [1, 6]: 55.3%
- mortality at 100 ppm [1, 6]: 59.6%
- mortality at 250 ppm [1, 6]: 91.5%
- mortality at 500 ppm [1, 6]: 97.9%
- mortality at 1000 ppm [1, 6]: 100%
- Minimum Dose for killed 50% sporozoite [1, 5]: 50 ppm
- Minimum Dose for killed 50% sporozoite ([1]; Eimeria tenella, treated up to 1000 ppm at maximum, minimal concentration with mortality rate of 50% or more (Table 6)): 50 ppm
- mortality at 10 ppm [2]: 34%

SMILES: O=C(O)/C=C/c1cccc(O)c1 [m-coumaric acid, reference compound]
- mortality at 10 ppm ([1]; Eimeria tenella, 10 ppm, 40° C., 3 hours, compared to PBS negative control (Table 3), read-out: Mortality rate of Eimeria tenella orozites [Killed sporozoites %]): 10.7%
- Minimum Dose for killed 50% sporozoite [1, 5]: 500 ppm
- mortality at 10 ppm [2]: 6.4%
